The nature of this test: Dual-Glo Luciferase Assay: The Dual-Glo Luciferase Reagent was prepared by transferring the contents of one bottle of Dual-Glo Luciferase Buffer to one bottle of Dual-Glo Luciferase Substrate to create the Dual-Glo Luciferase Reagent. Mixing was performed by inversion until the substrate was thoroughly dissolved. After mixing, the reagent was aliquoted into 15 ml tubes. In the afternoon (24 hrs post compound treatment), the DMEM+medium in the 384 well plates were aspirated by Microplate Washer.Measuring firefly luciferase activity: 20 ul Dual-Glo Luciferase Reagent was added to the 384-well plates. The plates were protected from light to prevent interference with the assay. The plates were shaken for 1 min followed centrifuging plates at 1000 rpm for 30 seconds. After waiting at least 10 minutes, the firefly luminescence was measured by Envision.Measuring renilla luciferase activity: 20 ul Stop-Glo Reagent was added to the 384-well plates. The plates were shaken for 1 min and then centrifuged at 1000 rpm for 30 seconds. After waiting at least 10 minutes, the renilla luminescence was measured by Envision.Compound IC50 and maximum inhibition on the firefly luciferase and renilla luciferase activities were reported separately.

A value given as a limit tells only on which side of the number the result lay.

`C[C@H](CCN(C)C)NC(=O)c1ccc2c(Oc3ccc(C(F)(F)F)cc3)cccc2c1`: the IC50 was < 100 nM.
The figure for `C[C@@H](NC(=O)c1ccc2c(Oc3ccc(C(F)(F)F)cc3)cccc2c1)C1CNC1` is < 100 nM; for `O=C(N[C@@H](CO)C1CNC1)c1ccc2c(Oc3ccc(C(F)(F)F)cc3)cccc2c1` it is “in the range around 2000 nM”.
Regarding `O=C(N[C@@H](CO)c1ccccn1)c1ccc2c(Oc3ccc(C(F)(F)F)cc3)cccc2c1`, the IC50 entry was “in the range around 550 nM”.
In the case of `C[C@@H](NC(=O)c1ccc2c(Oc3ccc(C(F)(F)F)cc3)cccc2c1)C1CN(C2CC2)C1`, the 50% inhibitory concentration (IC50) is < 100 nM.
The figure for `O=C(NC(CCO)c1ccccn1)c1ccc2c(Oc3ccc(C(F)(F)F)cc3)cccc2c1` (stereo not given) is < 100 nM; for `O=C(NC(CCO)CCO)c1ccc2c(Oc3ccc(C(F)(F)F)cc3)cccc2c1` it is < 100 nM; for `N#CNC(=O)c1ccc2c(Oc3ccc(C(F)(F)F)cc3)cccc2c1` it is “in the range around 550 nM”.
On to `C[C@H](NC(=O)c1ccc2c(Oc3ccc(C(F)(F)F)cc3)cccc2c1)C1(F)CNC1`, for which the IC50 entry was “in the range around 2000 nM”.
Take `C[C@H](NC(=O)c1ccc2c(Oc3ccc(C(F)(F)F)cc3)cccc2c1)c1ccccc1Cl`: the IC50 is < 100 nM.
Consider `C[C@@H](NC(=O)c1ccc2c(Oc3ccc(C(F)(F)F)cc3)cccc2c1)C1CCN(CC(F)F)CC1`, for which the IC50 entry is “in the range around 550 nM”.
Consider `CC(=O)N1CC([C@@H](C)NC(=O)c2ccc3c(Oc4ccc(C(F)(F)F)cc4)cccc3c2)C1`, for which the IC50 entry is “in the range around 550 nM”.
The figure for `O=C(N[C@@H](CCO)c1ccccn1)c1ccc2c(Oc3ccc(C(F)(F)F)cc3)cccc2c1` is < 100 nM; for `COc1cc(Oc2ccc(C(F)(F)F)cc2)c2ncc(C(=O)N[C@H](C)CO)cc2c1` it is < 100 nM; for `C[C@@H](CCN)NC(=O)c1ccc2c(Oc3ccc(C(F)(F)F)cc3)cccc2c1` it is < 100 nM.
The figure for `C[C@H](NC(=O)c1cnc2c(Oc3ccc(C(F)(F)F)cc3)cccc2c1)c1cccc2nc[nH]c12` is < 100 nM.
As to `C[C@H](CCNCCF)NC(=O)c1ccc2c(Oc3ccc(C(F)(F)F)cc3)cccc2c1`, the IC50 was < 100 nM.
The entry for `C[C@@H](NC(=O)c1cnc2c(Oc3ccc(C(F)(F)F)cc3)cccc2c1)c1cccc2nc[nH]c12` is “in the range around 550 nM”; for `CC(C)NC(=O)c1ccc2c(Oc3ccc(C(F)(F)F)cc3F)cccc2c1` it is < 100 nM.
The figure for `C[C@@H](NC(=O)c1ccc2c(Oc3ccc(C(F)(F)F)cc3)cccc2c1)c1cn(C)cn1` is < 100 nM.
Regarding `CC#C[C@@H](C)NC(=O)c1ccc2c(Oc3ccc(C(F)(F)F)cc3)cccc2c1`, the IC50 is < 100 nM.
The figure for `C[C@@H](NC(=O)c1ccc2c(Oc3ccc(C(F)(F)F)cc3)cccc2c1)C1(O)CNC1` is < 100 nM; for `C[C@@H](CN)NC(=O)c1ccc2c(Oc3ccc(C(F)(F)F)cc3)cccc2c1` it is < 100 nM; for `C[C@@H](CCO)NC(=O)c1ccc2c(Oc3ccc(C(F)(F)F)cc3)cccc2c1` it is < 100 nM.
The figure for `C[C@H](CCNCC(F)F)NC(=O)c1ccc2c(Oc3ccc(C(F)(F)F)cc3)cccc2c1` is < 100 nM; for `O=C(N[C@H](CO)c1ccccn1)c1ccc2c(Oc3ccc(C(F)(F)F)cc3)cccc2c1` it is < 100 nM.
For `O=C(N[C@H](CCO)c1ccccn1)c1ccc2c(Oc3ccc(C(F)(F)F)cc3)cccc2c1`, the IC50 entry was “in the range around 550 nM”.
The figure for `C[C@@H](NC(=O)c1ccc2c(Oc3ccc(C(F)(F)F)cc3)cccc2c1)c1cccc2ccc(=O)[nH]c12` is < 100 nM.
The entry for `C[C@H](NC(=O)c1ccc2c(Oc3ccc(C(F)(F)F)cc3)cccc2c1)C1CN(C2CC2)C1` is “in the range around 2000 nM”.
On to `C[C@@H](NC(=O)c1cnc2c(Oc3ccc(C(F)(F)F)cc3)cccc2c1)c1cccc2ccsc12`, for which the IC50 entry is “in the range around 550 nM”.
The entry for `C[C@@H](NC(=O)c1ccc2c(Oc3ccc(C(F)(F)F)cc3)cccc2c1)C1CCN(CCO)CC1` is “in the range around 550 nM”; for `CC(C)N1CCC([C@@H](C)NC(=O)c2ccc3c(Oc4ccc(C(F)(F)F)cc4)cccc3c2)CC1` it is “in the range around 550 nM”.
The entry for `CCN1CC([C@H](C)NC(=O)c2ccc3c(Oc4ccc(C(F)(F)F)cc4)cccc3c2)C1` is “in the range around 550 nM”; for `CCN1CC([C@@H](C)NC(=O)c2ccc3c(Oc4ccc(C(F)(F)F)cc4)cccc3c2)C1` it is “in the range around 550 nM”; for `C[C@@H](NC(=O)c1ccc2c(Oc3ccc(C(F)(F)F)cc3)cccc2c1)C1CN(C)C1` it is “in the range around 550 nM”.
The entry for `C[C@@H](NC(=O)c1ccc2c(Oc3ccc(C(F)(F)F)cc3)cccc2c1)C1CN(CCO)C1` is “in the range around 550 nM”.
Turning to `COc1cc(Oc2ccc(C(F)(F)F)cc2)c2ncc(C(=O)NC(CO)c3ccccn3)cc2c1` (stereo not given), the IC50 was < 100 nM.
Consider `C[C@H](CCN)NC(=O)c1ccc2c(Oc3ccc(C(F)(F)F)cc3)cccc2c1`, for which the half-maximal inhibitory concentration (IC50) is < 100 nM.
Regarding `C[C@H](NC(=O)c1cc2cccc(Oc3ccc(C(F)(F)F)cc3)c2s1)c1ccccn1`, the IC50 was < 100 nM.
Turning to `C[C@H](CN)NC(=O)c1ccc2c(Oc3ccc(C(F)(F)F)cc3)cccc2c1`, the IC50 result was “in the range around 550 nM”.
The figure for `C[C@H](CO)NC(=O)c1cnc2c(Oc3ccc(C(F)(F)F)cc3)cc(F)c(F)c2c1` is < 100 nM.
Consider `CC(=O)N1CC([C@H](C)NC(=O)c2ccc3c(Oc4ccc(C(F)(F)F)cc4)cccc3c2)C1`, for which the IC50 entry is “in the range around 550 nM”.
The entry for `C[C@H](NC(=O)c1ccc2c(Oc3ccc(C(F)(F)F)cc3)cccc2c1)c1cn(C)cn1` is “in the range around 550 nM”; for `C[C@H](NC(=O)c1ccc2c(Oc3ccc(C(F)(F)F)cc3)cccc2c1)C1(O)CNC1` it is “in the range around 550 nM”.
The figure for `C[C@H](NC(=O)c1ccc2c(Oc3ccc(C(F)(F)F)cc3)cccc2c1)C1CNC1` is < 100 nM; for `C[C@H](CCNCCO)NC(=O)c1ccc2c(Oc3ccc(C(F)(F)F)cc3)cccc2c1` it is < 100 nM.
The figure for `C[C@H](CCO)NC(=O)c1ccc2c(Oc3ccc(C(F)(F)F)cc3)cccc2c1` is < 100 nM.
As for `C[C@H](NC(=O)c1ccc2c(Oc3ccc(C(F)(F)F)cc3)cccc2c1)C1CN(CCF)C1`, the IC50 entry was “in the range around 2000 nM”.
The figure for `CC(C)NC(=O)c1ccc2c(Oc3ccc(C(F)(F)F)cc3)cncc2c1` is < 100 nM; for `NS(=O)(=O)c1ccc2c(Oc3ccc(C(F)(F)F)cc3)cccc2c1` it is < 100 nM; for `C[C@H](NC(=O)c1ccc2c(Oc3ccc(C(F)(F)F)cc3)cccc2c1)C1CN(CC(F)F)C1` it is “in the range around 2000 nM”.
On to `C[C@@H](NC(=O)c1ccc2c(Oc3ccc(C(F)(F)F)cc3)cccc2c1)C1CN(CC(F)F)C1`, for which the IC50 was < 100 nM.
Turning to `CC(C)N1CC([C@@H](C)NC(=O)c2ccc3c(Oc4ccc(C(F)(F)F)cc4)cccc3c2)C1`, the IC50 result is “in the range around 2000 nM”.
The entry for `C[C@@H](NC(=O)c1ccc2c(Oc3ccc(C(F)(F)F)cc3)cccc2c1)C1(F)CNC1` is “in the range around 550 nM”; for `C[C@H](NC(=O)c1ccc2c(Oc3ccc(C(F)(F)F)cc3)cccc2c1)C1CN(CCO)C1` it is “in the range around 550 nM”; for `CCNCC[C@@H](C)NC(=O)c1ccc2c(Oc3ccc(C(F)(F)F)cc3)cccc2c1` it is < 100 nM.
Turning to `O=C(N[C@H](CO)C1CNC1)c1ccc2c(Oc3ccc(C(F)(F)F)cc3)cccc2c1`, the IC50 result is “in the range around 550 nM”.
The entry for `C[C@H](NC(=O)c1ccc2c(Oc3ccc(C(F)(F)F)cc3)cccc2c1)C1CN(C)C1` is “in the range around 2000 nM”; for `CC(C)N1CC([C@H](C)NC(=O)c2ccc3c(Oc4ccc(C(F)(F)F)cc4)cccc3c2)C1` it is “in the range around 550 nM”; for `C[C@@H](NC(=O)c1ccc2c(Oc3ccc(C(F)(F)F)cc3)cccc2c1)C1CN(CCCCO)C1` it is “in the range around 550 nM”.
Take `CNCC[C@@H](C)NC(=O)c1ccc2c(Oc3ccc(C(F)(F)F)cc3)cccc2c1`: the IC50 is < 100 nM.
As to `CC#C[C@H](C)NC(=O)c1ccc2c(Oc3ccc(C(F)(F)F)cc3)cccc2c1`, the IC50 is < 100 nM.
The figure for `C[C@@H](NC(=O)c1ccc2c(Oc3ccc(C(F)(F)F)cc3)cccc2c1)C1CN(CCF)C1` is < 100 nM; for `C[C@@H](NC(=O)c1ccc2c(Oc3ccc(C(F)(F)F)cc3)cccc2c1)c1cccc2cn[nH]c12` it is < 100 nM; for `C[C@@H](NC(=O)c1ccc2c(Oc3ccc(C(F)(F)F)cc3)cccc2c1)C1CCN(C)CC1` it is < 100 nM.
As to `CCN1CCC([C@@H](C)NC(=O)c2ccc3c(Oc4ccc(C(F)(F)F)cc4)cccc3c2)CC1`, the IC50 entry is “in the range around 550 nM”.
With `C[C@@H](NC(=O)c1ccc2c(Oc3ccc(C(F)(F)F)cc3)cccc2c1)C1CCN(CCF)CC1`, the IC50 result was “in the range around 550 nM”.
The figure for `CC(C)NC(=O)c1ccc2c(Oc3ccc(C(F)(F)F)cc3Cl)cccc2c1` is < 100 nM.
The figure for `COc1cc(Oc2ccc(C(F)(F)F)cc2)c2ncc(C(=O)NC(C)C)cc2c1` is < 100 nM; for `C[C@@H](NC(=O)c1ccc2c(Oc3ccc(C(F)(F)F)cc3)cccc2c1)C1CCNCC1` it is < 100 nM.
